Consider 1 compound from US20230114946A1, “MESOSCALE NANOPARTICLES FOR SELECTIVE TARGETING TO THE KIDNEY AND METHODS OF THEIR THERAPEUTIC USE” (Memorial Sloan Kettering Cancer Center, priority 2015, published 2023).

Each structure is given as a SMILES string.

The test system of this assay is human kidney proximal tubular epithelial cell line HK-2. The assay is described as follows: In vitro nanoparticle uptake. Format: cell-based. The conditions noted are these: inhibitor of clathrin/caveolin-mediated endocytosis. As to the method:
The following cell lines were used to determine uptake of anionic and cationic nanoparticles in vitro: MCF-7 human breast adenocarcinoma (ATCC; Manassas, Va.), SK-RC-48 human clear cell renal cell carcinoma (ccRCC) (Weill Cornell Medical College; New York, N.Y.), bEND3 mouse brain endothelial (ATCC), endothelial cell line EA-926, and human kidney proximal tubular epithelial cell line HK-2. MCF-7 cells were cultured in Dulbecco's Modified Eagle Medium (DMEM) with penicillin (10,000 U/mL)/streptomycin (10,000 U/mL)/glutamine (29.2 mg/mL) (Gibco; Carlsbad, Calif.), 0.01 mg/mL human recombinant insulin (Gibco), and 10% fetal bovine serum (FBS) (Gibco); SK-RC-48 were cultured in DMEM with 1× penicillin/streptomycin/glutamine and 10% FBS; and bEND3 cells in the same plus 1% glutaMAX (Gibco). HK-2 cells were cultured in Keratinocyte Serum Free Media (Gibco). EA-926 cells were cultured in RPMI-1640 medium (Gibco) supplemented with 10% FBS. Cells were passaged approximately weekly and media changed every 2-3 days. Cells were seeded into a 6-well cell culture dish for uptake studies. […]
Cells were incubated with 100 μg/mL NPs in 1 mL of their respective complete medias for 30 minutes. […] Cells were imaged with a fluorescence microscope using Cy5 filters.

With `O=C(N/N=C/c1ccc(O)c(O)c1)c1cc2ccccc2cc1O` [Dynasore], the “inhibition of MNP uptake into HK-2 cells” value was “can be inhibited”.
